Results: patent US20210386709A1, “COMPOSITIONS AND METHODS FOR SUPPRESSING MSUT2” (United States Government As Represented By The Department …, priority 2020, published 2021)

Assays:
[1] = target: T1, MSUT2 ZF (Homo sapiens, UniProt Q6PJT7); test: Fluorescence polarization assay of FAM-poly(A) RNA:MSUT2 ZF binding; conditions: by FP assay; read-out: Ki for MSUT2 by FP assay
T1 construct: Targeted construct consisted of the c-terminal end (dark blue and amino acids 601-736) of MSUT2; made in house; host or cells: E. coli BL21 (DE3)
T1 sequence (Q6PJT7 601-736): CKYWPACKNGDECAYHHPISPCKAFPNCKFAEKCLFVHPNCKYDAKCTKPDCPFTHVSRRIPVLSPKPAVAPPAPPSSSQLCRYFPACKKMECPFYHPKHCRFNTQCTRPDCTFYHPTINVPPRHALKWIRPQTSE
Method: Fluorescence Polarization Assay. […] 2 μL of compound was transferred for a final concentration of 10 μM. […] Fluorescence polarization was calculated by first subtracting background from a buffer-only control well and then using the equation
Results and Discussion. A high-throughput fluorescence polarization assay for inhibition of poly(A):MSUT2 RNA interaction. […] In order to screen potential inhibitors of MSUT2 RBP and RNA by FP, fluorescent FAM (fluorescein amidite)-labeled poly(A)15 RNA (FAM-RNA) and recombinant MSUT2 ZF (zinc finger) protein expressing constructs were generated (FIG. 7a). […] Inhibition of the interaction results in unbound FAM-RNA tumbling at a relatively rapid rate and emitting non-polarized light (FIG. 7b).
To determine the concentrations of both MSUT2 ZF protein and FAM-RNA probe useful in the methods described herein, a two dimensional titration of protein and RNA concentrations in 96-well format was performed. […] Next, the binding constant between MSUT2 ZF and FAM-RNA was determined by holding FAM-RNA constant at 10 nM while increasing MSUT2 ZF concentration.
Identification and validation of MSUT2 inhibitory compounds from NIHCC library. […] IC50 of each of the previous 8 compounds was determined for PABPN1 using fluorescence polarization (FIG. 11), and a specificity ratio determined (Table 3). An Alpha Screen (AS) assay was developed as an orthogonal screen. Briefly, in this screen, biotinylated RNA binds streptavidin-coated donor beads, while GST-MSUT2 ZF binds glutathione-coated acceptor beads. When donor beads and acceptor beads are brought within close proximity of one another, laser excitation leads to fluorophore emission of the acceptor bead via excited singlet oxygen activating chemiluminescers in the acceptor beads. […] Toxicity of these compounds in a HEK cell model was determined using a standard Promega Cell Titer Glo assay.
Fluorescence Polarization Assay. […] of stock compound was transferred yielding 10 μM final concentration. […] Fluorescence polarization was calculated by first subtracting background from a buffer-only control well and then using the equation

[2] = target: T2, Soluble epoxide hydrolase (gene EPXH2) (Homo sapiens, UniProt P34913); conditions: read-out: Ki (nM) for Known Target; cited from earlier work
T2 sequence (P34913 1-555): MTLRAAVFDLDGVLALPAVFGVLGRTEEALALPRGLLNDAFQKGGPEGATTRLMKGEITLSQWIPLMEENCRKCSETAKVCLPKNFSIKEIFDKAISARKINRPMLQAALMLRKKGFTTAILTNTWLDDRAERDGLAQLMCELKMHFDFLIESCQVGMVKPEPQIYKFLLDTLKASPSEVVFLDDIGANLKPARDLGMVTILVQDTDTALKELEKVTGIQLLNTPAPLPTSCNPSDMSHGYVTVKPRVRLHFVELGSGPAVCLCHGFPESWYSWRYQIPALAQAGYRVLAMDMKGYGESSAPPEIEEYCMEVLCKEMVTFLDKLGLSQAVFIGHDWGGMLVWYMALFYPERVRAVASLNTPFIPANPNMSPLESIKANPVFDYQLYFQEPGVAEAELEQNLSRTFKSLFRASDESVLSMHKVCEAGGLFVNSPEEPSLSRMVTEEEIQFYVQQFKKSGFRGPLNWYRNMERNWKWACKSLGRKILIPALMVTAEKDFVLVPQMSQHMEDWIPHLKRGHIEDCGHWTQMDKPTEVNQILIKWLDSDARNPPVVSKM

In the case of `O=c1c2ccccc2[se]n1-c1ccccc1` [Ebselen], the Ki [1] is given as 1020 nM and the Ki [2] is given as 0.55 nM.
